Data as given in paper PMC4229098, “Alzheimer's Therapeutics Targeting Amyloid Beta 1–42 Oligomers I: Abeta 42 Oligomer Binding to Specific Neuronal Receptors Is Displaced by Drug Candidates That Improve Cognitive Deficits” (PLoS ONE, 2014).
Entries after “also recorded” stand apart in the source; their conditions may differ. Read-outs that look alike come from different tables or passages of the source.

Assays:
Abeta 1–42 oligomers = biological target: T1, Abeta 1–42 oligomers (Homo sapiens, UniProt P05067); assay: Oligomer-specific Abeta ELISA (direct action on oligomers); type: biochemical
T1 construct: purchased California Peptide Inc; American Peptide Company; or University of Pittsburgh Peptide Core facility 641-15; 62-0-80; host or cells: chemical synthesis
T1 sequence (P05067 672-713): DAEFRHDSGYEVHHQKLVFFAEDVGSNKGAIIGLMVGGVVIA
Method: Determination of oligomeric and monomeric concentrations of Abeta contained in a given Abeta preparation was done according to the method of LeVine. Briefly, total Abeta concentration is measured by two-site ELISA using different capture (6E10 monoclonal antibody, Covance SIG-39320) and detection (4G8- conjugated to biotin, Covance, SIG39240) antibodies and quantifyied with streptavidin-horseradish peroxidase (Millipore catalog number AP308P). Oligomerized Abeta is measured in the same samples by a single-site ELISA in which monoclonal antibodies to the same epitope are used for capture (4G8, Covance SIG-39330) and detection (4G8-biotin). The 4G8-biotin cannot bind to captured monomer because the epitope is blocked by the capture antibody, so only oligomers are detected with this configuration. The streptavidin-horseradish peroxidase therefore reports only oligomeric Abeta which has additional exposed 4G8 epitopes. Monomer concentration is calculated as the difference between total Abeta concentration and oligomer concentration.

[1] = system: mouse models of Alzheimer's disease; assay: Behavioral tests (behavioral efficacy summary); type: in vivo, mice; design: key to Measured efficacy: statistically significant improvement (+); no significant improvement (-); conditions: for Behavioral efficacy: Table S1
Source text: (§1) All procedures were approved by the Institutional Animal Care and Use and Committee at Columbia University and Stanford University and were in compliance with the Office of Laboratory Animal Welfare and the Guide for the Care and Use of Laboratory Animals, Eighth Edition. Behavioral testing of wild-type, 3–4 month old, male, C57/BL6 mice, injected bilaterally into their hippocampus with Abeta oligomers and testing in the fear conditioning task was done according to published methods. Animals were anesthetized with […] Avertin prior to implantation of cannulas into the hippocampus. Testing of transgenic hAPP Swedish/London mice in the Morris water maze or fear conditioning tasks was done according to published methods, [38]. To measure brain concentration of drugs, brains were homogenized in 1 ml PBS per gram of brain tissue using a handheld homogenizer. Brain homogenate was then extracted with three volumes of ice cold methanol on ice for 15 minutes and centrifuged for 15 min. The supernates were analyzed by LC/MS/MS. Samples were compared to a calibration curve prepared in a similar manner by spiking blank control homogenate with standards prepared in DMSO and then extracted as above. At the end of all behavioral testing, animals were euthanized with CO2 followed by cervical dislocation.

[2] = system: synaptophysin-immunopositive puncta along MAP2-labeled neurites; assay: Synapse counting assay; type: cell-based, rat; conditions: for Affects Synapse density in the absence of Aβ: Table S1
Method: Sprague-Dawley rats, 18 days pregnant, were euthanized by CO2 asphyxiation followed by cervical dislocation, and embryos were removed. Hippocampus and cortical tissue from the embryo brains were digested in 2.5% Trypsin (Life Technologies) to dissociate cells. Isolated cells were plated at a density of 4.6×10^4 cells per cm^2 in 384-well poly-D Lysine coated plates (Greiner) in Neurobasal Media (Life Technologies) supplemented with B27 (Life Technologies), Glutamax (Life Technologies) and antibiotics (penicillin, 50 units/ml and streptomycin 50 µg/ml, Life Technologies). Cultures were maintained at 37°C in 5% CO2 with weekly media change for 3 weeks prior to experimentation. These mixed cultures of hippocampal plus cortical neurons and glia were used for all of the in vitro experiments described.
Cultures were treated with compounds for 60 minutes prior to addition of 6 µM (maximum from trafficking dose-response curve) of synthetic Abeta 1–42 oligomers and incubated for 24 hrs. Cultures were fixed and immunofluorescently labeled and imaged as for the Abeta binding assay. The ThermoFisher/Cellomics Neuronal Profiling bioapplication was used to count synaptophysin-immunopositive puncta along MAP2-labeled neurites. The number of puncta per unit length of neurites was used to determine effects of treatments. To attain statistical power of 80% and a p value of less than 0.05 (determined using G*Power software), twenty replicate wells were treated per experiment plate and compared to control wells on the same plate and experiments were repeated four times.

[3] = system: neuronal synaptic puncta in hippocampal/cortical cultures; assay: Abeta binding assay, neurons (immunofluorescence of neurite puncta); design: species or system rat; conditions: for displacement of Abeta oligomers: 15 µM compound added 1 hour after oligomers 0.5 µM, within 1 hour; for prevention of binding of Abeta oligomers to neuronal cultures: 15 µM compound one hour prior to synthetic Abeta oligomers 0.5 µM; for EC50: single site model
[4] = system: C57/BL6 mice injected with Abeta oligomers; assay: Contextual fear conditioning after intrahippocampal Abeta oligomer injection; type: in vivo; conditions: 2 µM intrahippocampal; for prevention of Abeta oligomer-induced fear memory deficits: one hour prior to oligomer injection; for effect on fear memory when administered alone: without Abeta
Source text: as §1

sigma-2/PGRMC1 receptor = biological target: T2, sigma-2/PGRMC1 receptor (Homo sapiens, UniProt Q5BJF2); assay: Sigma-2 radioligand binding; conditions: radioligand competition binding; read-out: Ki, binding affinity at the sigma-2/PGRMC1 receptor
T2 construct: endogenous in cells; host or cells: human Jurkat cells (membranes)
T2 sequence (Q5BJF2 whole entry): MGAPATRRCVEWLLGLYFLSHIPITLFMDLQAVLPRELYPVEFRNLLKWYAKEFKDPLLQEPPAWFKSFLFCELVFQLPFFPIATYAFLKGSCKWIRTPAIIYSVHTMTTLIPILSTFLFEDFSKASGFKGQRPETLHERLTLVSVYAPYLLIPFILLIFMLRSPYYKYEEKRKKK
Method: Radioligand competition assays were performed in membranes from human Jurkat cells using 5 nM [^3H]1,3-di(2-tolyl) guanidine in the presence of 1 µM (+)-pentazocine with 10 µM haloperidol to define non-specific binding.

[5] = Brain concentration of compounds (LC/MS/MS); type: in vivo, mice; conditions: mouse, 24 h after last dose, read-out: Compound Concentration in brain
Source text: as §1

[6] = system: mature primary hippocampal and cortical cultures; assay: Membrane trafficking assay (MTT formazan exocytosis); type: cell-based, rat; conditions: for Schild slope: against synthetic oligomers; for reversal of trafficking deficit caused by human patient derived Abeta: compound 0.2 µM, Abeta 1.5 pM; for effect on trafficking of compound alone: no Abeta; for activity in blocking effects of Abeta oligomers: control compounds; for Treatment duration for maximum response: Abeta preparation dosed alone;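 for all read-outs here: mixed neuron and glia cultures from E18 Sprague-Dawley rat embryos, grown 3 weeks in 384-well plates, labeled vesicles quantified by imaging or spectrophotometry as percent of vehicle-treated wells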
[7] = system: hAPP Swe/Ldn transgenic mice; assay: Contextual fear conditioning in transgenic mice; type: in vivo; conditions: 5.5 months, 9 month old males
Source text: as §1

[8] = 1 mg/kg/day s.c. osmotic minipump
[9] = 10 mg/kg/day s.c. osmotic minipump
[10] = hAPP Swedish/London transgenic, subcutaneous, 1 mg/kg/day s.c. osmotic minipump
[11] = hAPP Swedish/London transgenic, subcutaneous, 10 mg/kg/day s.c. osmotic minipump
[12] = Rattus norvegicus, compound added 1 hr prior to Abeta oligomers, log value, read-out: Prevention Log EC50 ± SE (converted)
[13] = Rattus norvegicus, compound added 1 hr prior to synthetic Abeta oligomers, read-out: Prevention EC50
[14] = Rattus norvegicus, 1 h, compound added 1 hr after Abeta oligomers, log value, read-out: Treatment Log EC50 ± SE (converted)
[15] = Rattus norvegicus, 1 h, compound added 1 hr after synthetic Abeta oligomers, read-out: Treatment EC50
[16] = preparation dosed alone, read-out: EC50 of Abeta preparation

## Oc1cccc2cccnc12 [8-OH quinoline, reference compound]
Abeta 1–42 oligomers
  dissociation of preformed oligomers: dissociated

## CC(C)=CC(C[C@H](C)c1ccc(C)cc1)NCC(C)C (stereo partly shown) [CT0093]
[1]; [8]
  Measured efficacy: -
[1]; [9]
  Measured efficacy: +
[1]
  Behavioral efficacy: Yes
[2]
  Affects Synapse density in the absence of Aβ: No
[3]
  displacement of Abeta oligomers: 49±5%
  prevention of binding of Abeta oligomers to neuronal cultures: 93%±2%
[3]; compound before oligomers, read-out: IC50, Abeta binding, prevention
  IC50: 2.2 µM
[3]; pretreatment, read-out: EC50, prevention of Abeta binding
  EC50: 2.2 ± 2.4 µM
[4]
  prevention of Abeta oligomer-induced fear memory deficits: completely prevented fear memory deficits
  effect on fear memory when administered alone: no effect on memory
sigma-2/PGRMC1 receptor
  Ki: 0.054 µM
[5]; [10]
  concentration at 24 h: 64 nM
[5]; [11]
  concentration at 24 h: 555 nM
[6]; [12]
  EC50: 4.9 µM
[6]; [13]
  EC50: 4.9 µM
[6]; Rattus norvegicus, compound added 1 hr after Abeta oligomers, log value, read-out: Treatment Log EC50 ± SE (converted)
  EC50: 2 µM
[6]; Rattus norvegicus, compound added 1 hr after synthetic Abeta oligomers, read-out: Treatment EC50
  EC50: 2 µM
[6]
  Schild slope: 1
  reversal of trafficking deficit caused by human patient derived Abeta: reverse the trafficking deficit
  effect on trafficking of compound alone: without affecting trafficking on their own
Abeta 1–42 oligomers
  dissociation of preformed oligomers: not by CT0109 or CT0093

## COc1cc(CCC(C)NCc2ccc(C(F)(F)F)cc2)ccc1O (stereo not shown) [CT0109]
[1]; [8]
  Measured efficacy: +
[1]; [9]
  Measured efficacy: +
[1]
  Behavioral efficacy: Yes
[2]
  Affects Synapse density in the absence of Aβ: No
[3]
  displacement of Abeta oligomers: 44%±3%
  prevention of binding of Abeta oligomers to neuronal cultures: 99%±7%
[4]
  prevention of Abeta oligomer-induced fear memory deficits: completely prevented fear memory deficits
  effect on fear memory when administered alone: no effect on memory
sigma-2/PGRMC1 receptor
  Ki: 0.009 µM
[5]; [10]
  concentration at 24 h: 41 nM
[5]; [11]
  concentration at 24 h: 266 nM
[6]; 15 µM added 1 hr prior to synthetic Abeta oligomers 3 µM
  restoration of trafficking: restores trafficking to vehicle-treated levels
[6]; [14]
  EC50: 4.07 µM
[6]; [15]
  EC50: 4.1 µM
[6]; Rattus norvegicus, Table S1, read-out: Block Aβ-induced membrane trafficking deficits EC50
  EC50: 2.2 µM
[6]; [12]
  EC50: 3.24 µM
[6]; [13]
  EC50: 3.2 µM
[6]
  Schild slope: 1
  reversal of trafficking deficit caused by human patient derived Abeta: reverse the trafficking deficit
  effect on trafficking of compound alone: without affecting trafficking on their own; also recorded: without affecting vesicles on its own
Abeta 1–42 oligomers
  dissociation of preformed oligomers: not by CT0109 or CT0093

## COc1ccc(CCC(C)NC2CCCc3ccccc32)cc1 (stereo not shown) [CT01206]
[1]
  Behavioral efficacy: No
[2]
  Affects Synapse density in the absence of Aβ: Yes
[4]
  prevention of Abeta oligomer-induced fear memory deficits: not effective
  effect on fear memory when administered alone: caused fear memory deficits in the absence of Abeta
[6]; [12]
  EC50: 4.37 µM
[6]; [13]
  EC50: 4.3 µM

## C[C@H](CCc1ccc(Cl)c(Cl)c1)NCc1ccc(C(F)(F)F)cc1 [CT01344]
[7]; 10 mg/kg/day p.o.
  contextual fear memory performance: significantly improved fear memory performance
[7]; 30 mg/kg/day p.o.
  contextual fear memory performance: significantly improved fear memory performance
[1]; 10 mg/kg/day oral gavage
  Measured efficacy: +
[1]; 30 mg/kg/day oral gavage
  Measured efficacy: +
[1]
  Behavioral efficacy: Yes
[2]; 15 µM
  restoration of synapse loss induced by Abeta: 100%
[2]
  Affects Synapse density in the absence of Aβ: No
[3]
  displacement of Abeta oligomers: 66±14%
  prevention of binding of Abeta oligomers to neuronal cultures: 94%±4%
[3]; displacement of pre-bound oligomers, read-out: IC50, Abeta binding, treatment
  IC50: 3.9 µM
[3]; read-out: EC50, displacement of pre-bound Abeta binding
  EC50: 3.9 ± 1.8 µM
sigma-2/PGRMC1 receptor
  Ki: 0.048 µM
[5]; hAPP Swe/Ldn transgenic, 10 mg/kg/day once daily oral gavage
  concentration at 24 h: 394 nM
[5]; hAPP Swe/Ldn transgenic, 30 mg/kg/day once daily oral gavage
  concentration at 24 h: 793 nM
[6]; [14]
  EC50: 6.46 µM
[6]; [15]
  EC50: 7.3 µM
[6]; [12]
  EC50: 8.71 µM
[6]; [13]
  EC50: 8.7 µM
[6]
  Schild slope: 1

## C[C@]12N[C@H](Cc3ccccc31)c1ccccc12 [MK-801, reference compound]
[6]
  activity in blocking effects of Abeta oligomers: only memantine was active

## C[N+](C)(C)CCCCCC[N+](C)(C)C [hexamethonium bromide, reference compound]
[6]
  activity in blocking effects of Abeta oligomers: only memantine was active

## CC12CC3CC(C)(C1)CC(N)(C3)C2 [memantine, reference compound]
[6]; control compound vs Abeta oligomers
  doses weakly blocking oligomer effects: above 100 µM

## O[C@H]1[C@H](O)[C@@H](O)[C@H](O)[C@@H](O)[C@@H]1O [scyllo-inositol, reference compound]
[6]
  activity in blocking effects of Abeta oligomers: only memantine was active

## Synthetic oligomers (low concentration): Abeta 1–42 oligomers formed at 500 nM, high molecular weight fraction from Sephadex G-75 [reference compound]
[6]
  Treatment duration for maximum response: 1 h
[6]; [16]
  EC50: 0.0027 µM

## semi-synthetic oligomers: Abeta 1–42 monomers incubated in size excluded rat brain homogenate, immunoprecipitated with 6E10 [reference compound]
[6]
  Treatment duration for maximum response: 1 h
[6]; [16]
  EC50: 0.0059 µM
